Source: US20240217966A1, “PHARMACEUTICAL COMPOSITION CONTAINING GLP-1 RECEPTOR AGONIST HAVING FUSED RING” (Shionogi & Co., Ltd., priority 2021, published 2024)
pEC50: −log10 of the molar value. Read-outs that look alike come from different tables or passages of the source.

Target: T1, Human GLP-1 receptor (Homo sapiens, UniProt P43220)
T1 construct: expressed in transfected cells
Test: Measurement of GLP-1 receptor agonist activity (cAMP assay)
Type: cell-based
Summary of the method: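 Agonism measured as cAMP accumulation by time-resolved FRET immunoassay in CHO-K1 cells stably expressing human GLP-1 receptor. Cells treated for 1 h at 37 °C with compound and forskolin (400 μM stock), in buffer containing the PDE inhibitors IBMX (0.1 mM) and RO20-1724 (0.2 mM).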

[1] = CHO-K1, hGLP-1R/CHO-K1 cells, cAMP, 100% = human GLP-1 (7-36) at 2 nM, 0% = DMSO only, read-out: Emax(%)
[2] = hGLP-1R/CHO-K1 cells, cAMP increase, 37° C. 1 hour
[3] = CHO-K1, maximum effect, cAMP increase in GLP-1 R/CHO-K1 cells, 2 nM human GLP-1 (7-36) = 100%, DMSO only = 0%, read-out: Emax
[4] = cAMP increase in GLP-1 R/CHO-K1 cells, 2 nM human GLP-1 (7-36) = 100%, DMSO only = 0%

T1 sequence (P43220 24-463): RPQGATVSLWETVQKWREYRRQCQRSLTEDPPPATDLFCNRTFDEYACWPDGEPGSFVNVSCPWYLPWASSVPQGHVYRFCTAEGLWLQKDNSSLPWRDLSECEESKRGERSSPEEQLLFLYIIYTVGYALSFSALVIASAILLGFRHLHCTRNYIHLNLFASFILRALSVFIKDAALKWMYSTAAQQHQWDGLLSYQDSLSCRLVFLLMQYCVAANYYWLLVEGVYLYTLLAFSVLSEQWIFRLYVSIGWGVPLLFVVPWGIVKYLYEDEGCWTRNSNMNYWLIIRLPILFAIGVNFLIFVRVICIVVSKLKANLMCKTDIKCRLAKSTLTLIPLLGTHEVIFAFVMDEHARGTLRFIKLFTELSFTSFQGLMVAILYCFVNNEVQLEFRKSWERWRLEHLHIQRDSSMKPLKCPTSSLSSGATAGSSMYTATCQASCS

Structure (SMILES)	Emax [1] [%]	pEC50 [2]	Emax [3] [%]	pEC50 [4]
COc1cc(C(=O)O)cc2c1nc(CN1CCc3cc(C(F)(F)F)c(OCc4ccc(Cl)cn4)cc3[C@@H]1C)n2C[C@@H]1CCO1 [Compound I-225]			104	9.46
COc1ccc(COc2cc3c(cc2C(F)(F)F)CCN(Cc2nc4c(F)cc(C(=O)O)cc4n2C[C@@H]2CCO2)[C@H]3C)cc1 [Compound I-202]	105	8.78		
O=C(O)c1ccc2nc(CN3CCc4cc(C(F)(F)F)c(OCc5ccc(Cl)cc5F)cc4C3)n(C[C@@H]3CCO3)c2c1F [Compound I-054]	104	9.02		
C[C@H]1c2cc(OCc3ccc(Cl)cc3F)c(Cl)cc2CCN1Cc1nc2c(F)cc(C(=O)O)cc2n1C[C@@H]1CCO1 [Compound I-336]			100	9.16
O=C(O)c1ccc2nc(CN3CCc4cc(C(F)(F)F)c(OCc5ccc(Cl)cc5F)nc4C3)n(C[C@@H]3CCO3)c2c1 [Compound I-110]	114			
C[C@H]1c2nc(OCc3ccccc3Cl)c(C(F)(F)F)cc2CCN1Cc1nc2ccc(C(=O)O)nc2n1C[C@@H]1CCO1 [Compound I-287]			116	9.99
COc1cc(C(=O)O)cc2c1nc(CN1CCc3cc(C(F)(F)F)c(OCc4ccc(Cl)cc4F)cc3C1)n2C[C@@H]1CCO1 [Compound I-119]	119	9.24		
COc1cc(C(=O)O)cc2c1nc(CN1CCc3cc(C(F)(F)F)c(OCc4ccc(C5CC5)cc4)nc3[C@@H]1C)n2C[C@@H]1CCO1 [Compound I-375]			103	10.09
O=C(O)c1ccc2nc(CN3CCc4cc(C(F)(F)F)c(OCc5ccc(C6CC6)cc5)nc4C3)n(C[C@@H]3CCO3)c2c1 [Compound I-266]			111	8.39
C[C@H]1c2nc(OCc3ccccc3Cl)c(C(F)(F)F)cc2CCN1Cc1nc2ccc(C(=O)O)cc2n1C[C@@H]1CCO1 [Compound I-253]			119	9.44
COc1cc(C(=O)O)cc2c1nc(CN1CCc3cc(C(F)(F)F)c(OCc4ccc(C)cc4)nc3C1)n2C[C@@H]1CCO1 [Compound I-387]			122	9.75
C[C@H]1c2cc(OCc3cc(F)c(Cl)cc3F)c(C(F)(F)F)cc2CCN1Cc1nc2c(F)cc(C(=O)O)cc2n1C[C@@H]1CCO1 [Compound I-213]	122	9.44		
COc1cc(C(=O)O)cc2c1nc(CN1CCc3cc(C(F)(F)F)c(OCc4ccc(Cl)cc4Cl)nc3C1)n2C[C@@H]1CCO1 [Compound I-389]			115	10.30
C[C@H]1c2nc(OCc3ccc(F)cc3)c(C(F)(F)F)cc2CCN1Cc1nc2ccc(C(=O)O)c(F)c2n1C[C@@H]1CCO1 [Compound I-308]			115	10.06
O=C(O)c1ccc2nc(CN3CCc4cc(C(F)(F)F)c(OCc5cc(F)c(Cl)cc5F)nc4C3)n(C[C@@H]3CCO3)c2c1 [Compound I-278]			109	9.09
Cn1nncc1Cn1c(CN2CCc3cc(C(F)(F)F)c(OCc4ccc(Cl)cc4F)cc3C2)nc2ccc(C(=O)O)cc21 [Compound I-050]	67.7	6.62		
C[C@H]1c2cc(OCc3ccc(Cl)cn3)c(C(F)(F)F)cc2CCN1Cc1nc2ccc(C(=O)O)c(F)c2n1C[C@@H]1CCO1 [Compound I-191]	130	9.19		
C[C@H]1c2cc(OCc3ccc(OC(F)F)cc3F)c(Cl)cc2CCN1Cc1nc2ccc(C(=O)O)c(F)c2n1C[C@@H]1CCO1 [Compound I-327]			100	8.97
Cc1csc(COc2nc3c(cc2C(F)(F)F)CCN(Cc2nc4ccc(C(=O)O)cc4n2C[C@@H]2CCO2)[C@H]3C)n1 [Compound I-248]			124	9.04
C[C@H]1c2cc(OCc3c(F)cc(Cl)cc3F)c(C(F)(F)F)cc2CCN1Cc1nc2c(F)cc(C(=O)O)cc2n1C[C@@H]1CCO1 [Compound I-129]	122	9.48		

Next, values leading:

Emax [1] [%]	pEC50 [2]	Emax [3] [%]	pEC50 [4]	Structure (SMILES)
93	7.67			O=C(O)c1ccc2nc(CN3CCc4cc(C(F)(F)F)c(OCc5ccc(C(F)(F)F)cc5)cc4C3)n(C[C@@H]3CCO3)c2c1 [Compound I-083]
		84.3	8.64	C[C@H]1c2cc(OCc3ccc(Cl)cn3)c(Cl)cc2CCN1Cc1nc2ccc(C(=O)O)cc2n1C[C@@H]1CCO1 [Compound I-309]
84	7.10			Cc1cc2c(cc1OCc1ccc(Cl)cc1F)CN(Cc1nc3ncc(C(=O)O)cc3n1C[C@@H]1CCO1)CC2 [Compound I-028]
128	9.07			C[C@H]1c2cc(OCc3ccc(OC(F)F)cc3F)c(C(F)(F)F)cc2CCN1Cc1nc2ccc(C(=O)O)c(F)c2n1C[C@@H]1CCO1 [Compound I-199]
		105	9.42	C[C@H]1c2cc(OCc3c(F)cc(Cl)cc3F)c(Cl)cc2CCN1Cc1nc2c(F)cc(C(=O)O)cc2n1C[C@@H]1CCO1 [Compound I-339]
		114	10.28	C[C@H]1c2nc(OCc3ccc(Cl)cc3F)c(Cl)cc2CCN1Cc1nc2ccc(C(=O)O)cc2n1C[C@@H]1CCO1 [Compound I-276]
		97.3	8.71	COc1cc(C(=O)O)cc2c1nc(CN1CCc3cc(Cl)c(OCc4ccc(C5CC5)cc4)cc3[C@@H]1C)n2C[C@@H]1CCO1 [Compound I-342]
		120	10.58	C[C@H]1c2nc(OCc3cc(F)c(Cl)cc3F)c(C(F)(F)F)cc2CCN1Cc1nc2c(F)cc(C(=O)O)cc2n1C[C@@H]1CCO1 [Compound I-246]
		113	9.91	C[C@H]1c2nc(OCc3cc(F)c(Cl)cc3F)c(C(F)(F)F)cc2CCN1Cc1nc2ccc(C(=O)O)nc2n1C[C@@H]1CCO1 [Compound I-352]
113	9.02			C[C@H]1c2cc(OCc3ccc(Cl)cn3)c(C(F)(F)F)cc2CCN1Cc1nc2ccc(C(=O)O)cc2n1C[C@@H]1CCO1 [Compound I-172]
108				O=C(O)c1ccc2nc(CN3CCc4cc(C(F)(F)F)c(OCc5ccc(Cl)cc5F)nc4C3)n(C[C@@H]3CCO3)c2c1F [Compound I-222]
124	8.84			C[C@H]1c2cc(OCc3ccc(C#N)cc3)c(C(F)(F)F)cc2CCN1Cc1nc2ccc(C(=O)O)c(F)c2n1C[C@@H]1CCO1 [Compound I-113]
		100	8.50	Cc1ccc(COc2nc3c(cc2C(F)(F)F)CCN(Cc2nc4ccc(C(=O)O)cc4n2C[C@@H]2CCO2)C3)cc1 [Compound I-265]
114	8.25			Cc1csc(COc2cc3c(cc2C(F)(F)F)CCN(Cc2nc4ccc(C(=O)O)cc4n2C[C@@H]2CCO2)C3)n1 [Compound I-137]
113	8.65			O=C(O)c1ccc2nc(CN3CCc4cc(C(F)(F)F)c(OCc5c(F)cc(Cl)cc5F)cc4C3)n(C[C@@H]3CCO3)c2c1 [Compound I-101]
		115	9.89	C[C@H]1c2nc(OCc3c(F)cc(F)cc3F)c(C(F)(F)F)cc2CCN1Cc1nc2ccc(C(=O)O)cc2n1C[C@@H]1CCO1 [Compound I-260]
		115	10.13	C[C@H]1c2nc(OCc3ccc(Cl)cn3)c(C(F)(F)F)cc2CCN1Cc1nc2c(F)cc(C(=O)O)cc2n1C[C@@H]1CCO1 [Compound I-365]
86				Cc1cc2ccc(Cc3nc4ccc(C(=O)O)cc4n3C[C@@H]3CCO3)cc2nc1OCc1ccc(Cl)cc1F [Compound I-006]
125	8.22			C[C@H]1c2cc(OCc3ccc(C#N)cc3F)c(Cl)cc2CCN1Cc1nc2ccc(C(=O)O)cc2n1C[C@@H]1CCO1 [Compound I-221]
		116	8.09	C[C@H]1c2cc(OCc3ccc(C4CC4)cc3)c(Cl)cc2CCN1Cc1nc2c(F)cc(C(=O)O)cc2n1C[C@@H]1CCO1 [Compound I-333]
114	8.84			O=C(O)c1ccc2nc(CN3CCc4cc(C(F)(F)F)c(OCc5ccc(Cl)cc5Cl)cc4C3)n(C[C@@H]3CCO3)c2c1 [Compound I-099]
		123	10.37	COc1cc(Cl)ccc1COc1nc2c(cc1C(F)(F)F)CCN(Cc1nc3ccc(C(=O)O)c(F)c3n1C[C@@H]1CCO1)[C@H]2C [Compound I-357]
		112		O=C(O)c1cc(F)c2nc(CN3CCc4cc(C(F)(F)F)c(OCc5ccc(Cl)cc5F)nc4C3)n(C[C@@H]3CCO3)c2c1 [Compound I-385]
		97.7	8.89	COc1cc(C(=O)O)cc2c1nc(CN1CCc3cc(C(F)(F)F)c(OCc4ccc(OC(F)F)cc4F)cc3[C@@H]1C)n2C[C@@H]1CCO1 [Compound I-233]
		118	9.83	COc1ccc(COc2nc3c(cc2C(F)(F)F)CCN(Cc2nc4c(F)cc(C(=O)O)cc4n2C[C@@H]2CCO2)[C@H]3C)cc1 [Compound I-364]
		145	9.89	C[C@H]1c2nc(OCc3ccc(Cl)cc3)c(C(F)(F)F)cc2CCN1Cc1nc2ccc(C(=O)O)cc2n1C[C@@H]1CCO1 [Compound I-249]
98	8.60			C[C@H]1c2cc(OCc3ccc(F)cc3F)c(C(F)(F)F)cc2CCN1Cc1nc2ccc(C(=O)O)nc2n1C[C@@H]1CCO1 [Compound I-183]
		112	9.06	COc1cc(Cl)ccc1COc1nc2c(cc1C(F)(F)F)CCN(Cc1nc3ccc(C(=O)O)cc3n1C[C@@H]1CCO1)C2 [Compound I-267]
		105	9.10	O=C(O)c1ccc2nc(CN3CCc4cc(C(F)(F)F)c(OCc5c(F)cc(F)cc5F)nc4C3)n(C[C@@H]3CCO3)c2c1 [Compound I-280]
		109	9.50	O=C(O)c1ccc2nc(CN3CCc4cc(C(F)(F)F)c(OCc5ccc(Cl)cc5Cl)nc4C3)n(C[C@@H]3CCO3)c2c1F [Compound I-298]
